How the values were obtained:
[1] = biological target: T1, reuptake of dopamine in synaptosomes of rat forebrain (Rattus norvegicus, UniProt P23977); assay: inhibition of reuptake of dopamine (3H-dopamine) in synaptosomes; type: biochemical
T1 construct: from tissue; host or cells: whole forebrain of male Wistar rats (crude synaptosomal supernatant)
Protocol: Fresh whole forebrain (at 0-4°C) from male Wistar rats (150-200 g) is homogenized in a glass homogenizer with a Teflon pestle in 20 x volumes 0.32M sucrose. The homogenate is centrifuged at 1000 x g (∼ 2900 rpm) for 10 min. The pellet is discarded and the supernatant is used for uptake assays. […] The samples are thoroughly mixed and incubated 10 min at 37°C followed by 2 min at 0°C. After incubation the samples are poured directly onto Whatman GF/C glass fibre filters under suction and immediately washed with 2 x 5 ml ice-cold 0.9% saline (NaCI) buffer. To the filter is added 3 ml of scintillation fluid, and the amount of radioactivity on the filters is determined by conventional liquid scintillation counting.

[2] = system: haloperidol-induced catalepsy; assay: catalepsy test for antiparkinsonian effects (antagonism of haloperidol-induced catalepsy); type: in vivo; conditions: Rattus norvegicus; rats, test substance perorally 1 h before haloperidol 0.25 mg/kg subcutaneously; read-out: Minimum effective dose (peroral administration)
Excerpt: The principle behind the haloperidol catalepsy test relates to the fact that the drug haloperidol (Serenase®) induces a receptor blockade of post synaptic dopamine receptors within the dopamine innervated corpus striatum of the rat brain. Following the blockade of active dopamine neurotransmission of the striatum a state of rigid immobility is induced, during which the rat can be placed in various totally abnormal immobile postures involving the forelegs and the whole body. […] The immobile posture effect induced by haloperidol closely resembles the state of Parkinson's disease in humans, which is due to a deficit of the dopaminergic innervation of the striatal complex (nucleus caudatus, putamen).
The day before testing, the rats weighing 200-250 g are housed 2 and 2 together in standard macrolon cages. […] The testing for the immobile catalepsy syndrome includes 4 tests performed in the following consecutive order: • 1) a vertical wire netting (40x40 cm high).The meshes (openings) of the nettings are approximately 1×2cm. • 2) a horizontal bar 9 cm above the floor • 3) a 9 cm high block (bar) • 4) a 3 cm high block (cork)
The rats were scored for the immobile cataleptic syndrome every 15 min in all 4 tests starting 15 min after the haloperidol injection. The intensity of catalepsy was tested during 10 sec in all tests and evaluated according to a criteria of 10 sec of total immobility for a score of 2.
The rat was placed in the middle of the vertical wire netting, then on the horizontal bar in an extended position with support by both the forelegs on the bar. The rats were then tested, whether or not they were willing to sit with the left or right forelegs placed first on the 9 and then on the 3 cm block for a duration of 10 sec. The maximum score for all 4 tests is thus a total of 8.

[3] = system: excitatory locomotor and rearing responses; assay: behavioural excitatory locomotor and rearing responses (side effect profile); type: in vivo, rat; conditions: for Activity: locomotor and rearing, maximum peak effect, rats
Protocol: Male SPF wistar rats weighing 200-250g were used for the gross behavioural studies. All rats were transferred the day before the experiments to individual cages made of wire netting (floor area 21 x 27 cm, height 16 cm) at a room temperature of 21-23° C. […] The behavioural elements here classified as rearing (i.e. standing up on the hindlegs) and locomotor activities (i.e. forward running activities) were registered, and the maximum peak effects were classified according to the following rating scale: • 0 = non-existent or very infrequent • + = weak and infrequent • ++ = moderate in intensity and frequency • +++ = very strong, continuous and intense
The degree of locomotor activity was also tested and measured quantitatively in photocell activity cages. For the measurement of this locomotor activity 100 g female rats are used.

[4] = system: abnormal stereotyped behaviour; assay: abnormal stereotyped behaviour, high intensity stereotypy (side effect profile); type: in vivo, rat; conditions: rats
Excerpt: Backward locomotion may occasionally be observed.

[5] = system: dopamine releasing properties; assay: dopamine releasing properties

T1 sequence (P23977 whole entry): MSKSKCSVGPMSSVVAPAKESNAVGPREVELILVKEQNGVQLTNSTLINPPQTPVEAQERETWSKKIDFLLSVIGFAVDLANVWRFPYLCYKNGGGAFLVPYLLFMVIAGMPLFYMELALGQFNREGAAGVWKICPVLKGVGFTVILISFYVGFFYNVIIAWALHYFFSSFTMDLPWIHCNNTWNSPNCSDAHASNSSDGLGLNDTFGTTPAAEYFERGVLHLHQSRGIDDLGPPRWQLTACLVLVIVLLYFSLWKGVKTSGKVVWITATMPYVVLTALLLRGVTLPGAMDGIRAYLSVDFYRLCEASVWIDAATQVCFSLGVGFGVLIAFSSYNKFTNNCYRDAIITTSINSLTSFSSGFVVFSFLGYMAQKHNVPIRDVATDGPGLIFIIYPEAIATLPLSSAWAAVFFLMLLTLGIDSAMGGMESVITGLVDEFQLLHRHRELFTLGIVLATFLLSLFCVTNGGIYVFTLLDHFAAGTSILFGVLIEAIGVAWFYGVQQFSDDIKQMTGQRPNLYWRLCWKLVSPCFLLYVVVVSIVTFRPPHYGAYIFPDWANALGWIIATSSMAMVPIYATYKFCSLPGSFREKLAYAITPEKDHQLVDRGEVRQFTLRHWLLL

Row | SMILES | IC50 [1] [nM] | minimal effective dose [2] [mg/kg] | Activity ([3]; 10 mg/kg i.p.) | Activity ([4]; 50 mg/kg i.p.) | Activity ([3]; 50 mg/kg i.p.) | Activity ([3]; 100 mg/kg i.p.) | Activity ([4]; 25 mg/kg i.p.) | Activity ([4]; 100 mg/kg p.o.) | side effects as measured by excitatory locomotor activity and rearing responses as well as by abnormal stereotyped behaviour ([3]; at every relevant dosing level tested) | dopamine releasing properties [5]
1 | CN1[C@H]2CC[C@@H]1[C@H](c1nc(-c3ccccn3)no1)[C@@H](c1ccc(Cl)c(Cl)c1)C2 [(1R,2R,3S)-2-(3-(2-Pyridyl)-1,2,4-oxadiazol-5-yl)-3-(3,4-dichlorophenyl)-tropane] | 115 | > 1 | 0 | + | – | – | – | – | – | –
2 | CN1[C@H]2CC[C@@H]1[C@H](c1nc(-c3cccs3)no1)[C@@H](c1ccc(Cl)c(Cl)c1)C2 [(1R,2R,3S)-2-(3-(2-Thienyl)-1,2,4-oxadiazol-5-yl)-3-(3,4-dichlorophenyl)-tropane] | 200 | > 1 | – | 0 | 0 | – | – | – | – | –
3 | CN1[C@H]2CC[C@@H]1[C@H](c1nc(-c3ccncc3)no1)[C@@H](c1ccc(Cl)c(Cl)c1)C2 [(1R,2R,3S)-2-(3-(4-Pyridyl)-1,2,4-oxadiazol-5-yl)-3-(3,4-dichlorophenyl)-tropane] | 69 | 0.25 | 0 | – | – | ++ | ++ | + | – | –
4 | COC(=O)[C@@H]1[C@@H](c2ccc(F)cc2)C[C@@H]2CC[C@H]1N2C [trans isomer of Win 35,428, (1R,2R,3S)-2-carbomethoxy-3-(4-fluorophenyl)tropane, reference compound] | – | – | – | – | – | – | – | – | essentially or totally devoid of side effects | essentially free of dopamine releasing properties

Source: EP0604352B1, “Aryl-substituted heterocyclic compounds” (N[…]/S, priority 1992, dated 1994)
